Series [1] is described as follows: AUC in cynomolgus monkey at 3 mg/kg, po and measured upto 24 hrs by LC-MS/MS analysis. Further details: dose 3 mg/kg, time < 24 hrs, route po. The settings on record: in vivo. The class given is ADME, organism-based, Macaca fascicularis.
A short description of series [2]: Volume of distribution at steady state in cynomolgus monkey at 1 mg/kg, iv and measured upto 24 hrs by LC-MS/MS analysis. The class given is ADME, organism-based, Macaca fascicularis. The settings on record: in vivo.
A short description of series [3]: Half life in cynomolgus monkey at 1 mg/kg, iv and measured upto 24 hrs by LC-MS/MS analysis. The class given is ADME, organism-based, Macaca fascicularis. The settings on record: in vivo.
The nature of series [4]: Clearance in cynomolgus monkey at 1 mg/kg, iv and measured upto 24 hrs by LC-MS/MS analysis. The series is classed as ADME, organism-based, Macaca fascicularis. The settings on record: in vivo.
Series [5] is described as follows: AUC in Sprague-Dawley rat at 3 mg/kg, po and measured upto 24 hrs by LC-MS/MS analysis. Further details: dose 3 mg/kg, time < 24 hrs, route po. The class given is ADME, organism-based. The settings on record: in vivo.
Series [6] is described as follows: Clearance in Sprague-Dawley rat at 1.5 mg/kg, iv and measured upto 24 hrs by LC-MS/MS analysis. The series is classed as ADME, organism-based. The settings on record: in vivo.
Series [7] can be described thus: Fraction unbound in human plasma by LC-MS/MS analysis. The series is classed as ADME, cell-free.
Series [8] can be described thus: Permeability across apical to basolateral side in human Caco2 cells at 50 uM and measured after 120 mins by LC-MS analysis. The class given is ADME, cell-based. The settings on record: Caco-2, read-out: permeability.
Series [9] concerns the target T1, Mitogen-activated protein kinase kinase kinase kinase 1 (Homo sapiens, UniProt Q92918). Nature of the series: Binding affinity to recombinant human HPK1 (1 to 346 residues) expressed sf9 cells incubated for 1 hr by LanthaScreen assay. A general note: TR-FRET usually uses a lanthanide donor and a delayed reading to cut background.
Series [10] addresses T1, Mitogen-activated protein kinase kinase kinase kinase 1. Nature of the series: Inhibition of human HPK1 in human Jurkat cells assessed as reduction in SLP76 phosphorylation incubated for 1 hr by HTRF assay. The series is classed as cell-based.
Series [11] in a line: Intrinsic clearance in human liver microsomes at 1 uM and measured upto 30 mins in presence of NADPH by LC-MS analysis. The class given is ADME, Microsome. The settings on record: read-out: CLH (converted).
Series [12] can be described thus: Oral bioavailability in cynomolgus monkey at 3 mg/kg and measured upto 24 hrs by LC-MS/MS analysis. The series is classed as ADME, organism-based, Macaca fascicularis. The settings on record: in vivo.
Series [13] deals with T1, Mitogen-activated protein kinase kinase kinase kinase 1. Nature of the series: Inhibition of human HPK1 in human whole blood assessed as reduction in SLP76 phosphorylation incubated for 1 hr by HTRF assay. The series is classed as tissue-based.
In series [14] the target is T2, Cytochrome P450 1A2 (Homo sapiens, UniProt P05177).
T2 sequence (P05177 whole entry): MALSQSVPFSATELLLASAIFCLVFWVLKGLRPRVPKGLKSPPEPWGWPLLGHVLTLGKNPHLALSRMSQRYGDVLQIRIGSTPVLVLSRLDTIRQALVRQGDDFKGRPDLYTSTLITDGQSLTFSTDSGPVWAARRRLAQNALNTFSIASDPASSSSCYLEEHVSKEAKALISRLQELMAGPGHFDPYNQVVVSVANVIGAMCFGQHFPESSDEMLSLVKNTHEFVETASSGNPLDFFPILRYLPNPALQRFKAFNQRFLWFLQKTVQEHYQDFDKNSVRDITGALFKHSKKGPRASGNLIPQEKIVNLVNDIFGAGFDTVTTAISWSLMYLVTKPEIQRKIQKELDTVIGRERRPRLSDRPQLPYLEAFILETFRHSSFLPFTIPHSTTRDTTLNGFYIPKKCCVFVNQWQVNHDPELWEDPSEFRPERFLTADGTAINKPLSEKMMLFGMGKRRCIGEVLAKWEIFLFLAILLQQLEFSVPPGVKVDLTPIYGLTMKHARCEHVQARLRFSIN
Nature of the series: Inhibition of CYP1A2 in human liver microsomes using 7- ethoxyresorufin as substrate by LC-MS analysis. The series is classed as ADME, Microsome. (Microsomes from liver hold many membrane-bound enzymes, among them those of drug oxidation.)

In series [15] the target is T3, Cytochrome P450 2B6 (Homo sapiens, UniProt P20813).
T3 sequence (P20813 whole entry): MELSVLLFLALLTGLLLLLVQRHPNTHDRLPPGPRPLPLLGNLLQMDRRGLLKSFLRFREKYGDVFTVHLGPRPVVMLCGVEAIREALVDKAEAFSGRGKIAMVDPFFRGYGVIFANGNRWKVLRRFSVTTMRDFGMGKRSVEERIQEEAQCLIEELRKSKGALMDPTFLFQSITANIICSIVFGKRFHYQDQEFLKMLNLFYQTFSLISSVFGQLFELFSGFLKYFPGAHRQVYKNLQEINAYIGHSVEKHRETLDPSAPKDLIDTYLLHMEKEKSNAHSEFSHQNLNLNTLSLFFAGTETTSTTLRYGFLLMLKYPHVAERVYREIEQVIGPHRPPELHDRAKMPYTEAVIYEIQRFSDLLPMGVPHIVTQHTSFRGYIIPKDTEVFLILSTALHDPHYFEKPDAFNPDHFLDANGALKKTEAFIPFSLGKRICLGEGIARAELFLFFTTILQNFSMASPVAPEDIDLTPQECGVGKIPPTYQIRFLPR
Nature of the series: Inhibition of CYP2B6 in human liver microsomes using bupropion as substrate by LC-MS analysis. The class given is ADME, Microsome.

For series [16], the target named is T4, Cytochrome P450 2C8 (Homo sapiens, UniProt P10632).
T4 sequence (P10632 whole entry): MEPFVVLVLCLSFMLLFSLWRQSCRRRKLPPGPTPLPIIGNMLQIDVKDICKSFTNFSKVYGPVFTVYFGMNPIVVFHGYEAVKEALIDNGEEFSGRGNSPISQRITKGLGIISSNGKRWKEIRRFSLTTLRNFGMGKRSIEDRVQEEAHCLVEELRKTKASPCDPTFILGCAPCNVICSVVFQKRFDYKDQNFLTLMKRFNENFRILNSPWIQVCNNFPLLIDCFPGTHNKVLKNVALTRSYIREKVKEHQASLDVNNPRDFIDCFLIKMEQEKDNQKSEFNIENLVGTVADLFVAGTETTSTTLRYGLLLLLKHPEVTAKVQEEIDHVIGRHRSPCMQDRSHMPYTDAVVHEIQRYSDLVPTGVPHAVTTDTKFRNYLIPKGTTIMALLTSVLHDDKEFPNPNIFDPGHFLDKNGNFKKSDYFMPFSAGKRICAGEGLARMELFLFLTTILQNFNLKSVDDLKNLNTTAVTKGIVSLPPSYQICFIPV
Nature of the series: Inhibition of CYP2C8 in human liver microsomes using amodiaquine as substrate by LC-MS analysis. The class given is ADME, Microsome.

Series [17] deals with Cytochrome P450 2C9 (Homo sapiens, UniProt P11712). Nature of the series: Inhibition of CYP2C9 in human liver microsomes using diclofenac as substrate by LC-MS analysis. The series is classed as ADME, Microsome.
Sequence of Cytochrome P450 2C9 (P11712 whole entry): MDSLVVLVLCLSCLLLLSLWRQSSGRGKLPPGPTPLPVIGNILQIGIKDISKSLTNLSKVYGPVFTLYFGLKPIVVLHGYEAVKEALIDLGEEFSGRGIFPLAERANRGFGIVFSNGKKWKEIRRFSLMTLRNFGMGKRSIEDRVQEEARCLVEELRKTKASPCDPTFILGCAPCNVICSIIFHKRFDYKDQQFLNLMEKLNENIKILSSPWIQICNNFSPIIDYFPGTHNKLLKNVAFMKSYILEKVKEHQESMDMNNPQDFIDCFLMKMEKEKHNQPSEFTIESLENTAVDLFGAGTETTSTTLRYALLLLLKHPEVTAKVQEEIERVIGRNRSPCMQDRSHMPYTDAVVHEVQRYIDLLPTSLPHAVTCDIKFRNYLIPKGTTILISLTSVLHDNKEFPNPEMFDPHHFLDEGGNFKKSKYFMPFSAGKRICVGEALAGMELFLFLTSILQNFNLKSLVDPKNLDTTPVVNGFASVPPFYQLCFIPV
Series [18] addresses Cytochrome P450 2D6 (Homo sapiens, UniProt P10635). Nature of the series: Inhibition of CYP2D6 in human liver microsomes using bufuralol as substrate by LC-MS analysis. The series is classed as ADME, Microsome.
For series [19], the target named is Cytochrome P450 3A4 (Homo sapiens, UniProt P08684). Nature of the series: Inhibition of CYP3A4 in human liver microsomes using testosterone as substrate by LC-MS analysis. The series is classed as ADME, Microsome.
Sequence of Cytochrome P450 3A4 (P08684 whole entry): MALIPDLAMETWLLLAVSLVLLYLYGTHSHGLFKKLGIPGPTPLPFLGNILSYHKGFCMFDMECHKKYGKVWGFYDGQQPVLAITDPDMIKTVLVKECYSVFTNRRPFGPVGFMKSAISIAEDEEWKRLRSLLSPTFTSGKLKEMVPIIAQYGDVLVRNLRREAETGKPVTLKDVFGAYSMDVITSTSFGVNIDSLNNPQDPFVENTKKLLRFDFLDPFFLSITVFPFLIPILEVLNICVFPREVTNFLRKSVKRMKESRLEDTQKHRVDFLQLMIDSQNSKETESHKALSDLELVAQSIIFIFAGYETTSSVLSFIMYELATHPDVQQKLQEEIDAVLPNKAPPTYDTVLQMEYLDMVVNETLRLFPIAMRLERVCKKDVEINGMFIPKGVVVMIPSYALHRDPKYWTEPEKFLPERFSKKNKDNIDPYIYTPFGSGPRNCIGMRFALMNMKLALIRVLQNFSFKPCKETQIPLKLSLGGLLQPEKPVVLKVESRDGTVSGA
For series [20], the target named is hERG (KCNH2) (Homo sapiens, UniProt Q12809). Nature of the series: Inhibition of human ERG at 5 uM by patch-clamp assay. The series is classed as toxicity. In general terms: The patch-clamp technique gives a direct electrical read-out from membranes.
Sequence of hERG (KCNH2) (Q12809 whole entry): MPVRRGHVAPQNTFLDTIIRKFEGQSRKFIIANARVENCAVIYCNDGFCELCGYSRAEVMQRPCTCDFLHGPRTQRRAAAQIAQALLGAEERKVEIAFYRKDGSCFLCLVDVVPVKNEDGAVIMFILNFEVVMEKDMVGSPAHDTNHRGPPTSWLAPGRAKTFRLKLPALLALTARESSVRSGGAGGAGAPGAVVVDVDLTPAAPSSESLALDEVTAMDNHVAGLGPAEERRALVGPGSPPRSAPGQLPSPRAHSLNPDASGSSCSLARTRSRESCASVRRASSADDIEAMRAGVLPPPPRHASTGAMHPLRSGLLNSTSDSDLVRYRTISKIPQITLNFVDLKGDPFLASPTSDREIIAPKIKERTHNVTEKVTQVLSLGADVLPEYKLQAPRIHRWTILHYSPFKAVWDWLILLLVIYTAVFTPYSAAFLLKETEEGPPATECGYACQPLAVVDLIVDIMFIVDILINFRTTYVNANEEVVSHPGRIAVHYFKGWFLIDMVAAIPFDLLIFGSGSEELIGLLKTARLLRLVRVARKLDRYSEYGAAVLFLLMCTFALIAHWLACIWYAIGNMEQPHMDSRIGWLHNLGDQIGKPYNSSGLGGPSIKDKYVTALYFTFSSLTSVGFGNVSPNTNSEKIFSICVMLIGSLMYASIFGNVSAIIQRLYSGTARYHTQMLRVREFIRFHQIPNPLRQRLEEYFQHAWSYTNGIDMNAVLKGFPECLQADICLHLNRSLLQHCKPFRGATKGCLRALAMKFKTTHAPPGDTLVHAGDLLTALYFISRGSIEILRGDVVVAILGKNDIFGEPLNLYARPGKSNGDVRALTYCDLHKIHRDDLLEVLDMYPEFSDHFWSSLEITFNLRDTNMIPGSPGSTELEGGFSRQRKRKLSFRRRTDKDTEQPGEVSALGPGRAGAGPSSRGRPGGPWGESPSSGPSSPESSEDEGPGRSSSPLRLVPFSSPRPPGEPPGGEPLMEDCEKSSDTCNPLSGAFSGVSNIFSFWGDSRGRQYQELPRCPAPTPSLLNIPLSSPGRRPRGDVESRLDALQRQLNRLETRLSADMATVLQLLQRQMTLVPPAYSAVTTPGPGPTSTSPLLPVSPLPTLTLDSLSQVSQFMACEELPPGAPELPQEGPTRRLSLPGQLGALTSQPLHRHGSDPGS
The target of series [21] is Cytochrome P450 2C19 (Homo sapiens, UniProt P33261). Nature of the series: Inhibition of CYP2C19 in human liver microsomes using S mephenytoin as substrate by LC-MS analysis. The series is classed as ADME, Microsome.
Sequence of Cytochrome P450 2C19 (P33261 whole entry): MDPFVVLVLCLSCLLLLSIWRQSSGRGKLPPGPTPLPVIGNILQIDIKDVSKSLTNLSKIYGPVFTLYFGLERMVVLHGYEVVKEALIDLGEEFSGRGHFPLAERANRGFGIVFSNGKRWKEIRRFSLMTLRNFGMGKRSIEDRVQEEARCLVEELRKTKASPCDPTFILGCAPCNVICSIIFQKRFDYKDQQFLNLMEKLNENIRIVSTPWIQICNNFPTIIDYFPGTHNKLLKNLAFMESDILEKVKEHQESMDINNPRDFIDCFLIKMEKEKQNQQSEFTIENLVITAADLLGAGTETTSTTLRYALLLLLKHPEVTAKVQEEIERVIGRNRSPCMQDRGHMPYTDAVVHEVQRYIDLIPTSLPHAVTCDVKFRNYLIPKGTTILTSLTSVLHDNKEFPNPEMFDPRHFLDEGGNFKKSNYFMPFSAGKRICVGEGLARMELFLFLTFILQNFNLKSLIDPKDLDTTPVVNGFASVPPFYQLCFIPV

T1 sequence (Q92918 whole entry, the tested form may be a part): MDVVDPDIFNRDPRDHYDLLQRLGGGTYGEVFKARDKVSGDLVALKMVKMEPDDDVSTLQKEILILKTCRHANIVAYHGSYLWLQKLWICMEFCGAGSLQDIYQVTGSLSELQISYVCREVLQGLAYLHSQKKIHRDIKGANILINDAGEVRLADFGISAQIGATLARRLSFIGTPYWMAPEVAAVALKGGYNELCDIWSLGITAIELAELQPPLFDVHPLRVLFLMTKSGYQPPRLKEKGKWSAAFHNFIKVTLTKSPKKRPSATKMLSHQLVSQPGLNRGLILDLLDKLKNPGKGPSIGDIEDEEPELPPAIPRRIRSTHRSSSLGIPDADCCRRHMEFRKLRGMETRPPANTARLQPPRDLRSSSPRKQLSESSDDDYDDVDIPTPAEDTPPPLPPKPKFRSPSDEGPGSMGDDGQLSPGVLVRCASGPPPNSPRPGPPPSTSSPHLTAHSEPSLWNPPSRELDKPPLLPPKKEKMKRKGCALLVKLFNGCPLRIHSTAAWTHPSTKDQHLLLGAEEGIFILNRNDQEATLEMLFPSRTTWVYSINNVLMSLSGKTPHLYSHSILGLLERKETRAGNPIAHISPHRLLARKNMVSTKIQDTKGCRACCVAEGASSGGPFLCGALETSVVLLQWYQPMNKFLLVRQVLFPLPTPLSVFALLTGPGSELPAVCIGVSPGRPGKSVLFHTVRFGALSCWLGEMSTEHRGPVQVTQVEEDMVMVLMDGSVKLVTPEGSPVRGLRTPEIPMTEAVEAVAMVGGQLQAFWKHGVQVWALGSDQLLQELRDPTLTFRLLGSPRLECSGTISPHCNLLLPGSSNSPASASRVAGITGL
Sequence of Cytochrome P450 2D6 (P10635 whole entry): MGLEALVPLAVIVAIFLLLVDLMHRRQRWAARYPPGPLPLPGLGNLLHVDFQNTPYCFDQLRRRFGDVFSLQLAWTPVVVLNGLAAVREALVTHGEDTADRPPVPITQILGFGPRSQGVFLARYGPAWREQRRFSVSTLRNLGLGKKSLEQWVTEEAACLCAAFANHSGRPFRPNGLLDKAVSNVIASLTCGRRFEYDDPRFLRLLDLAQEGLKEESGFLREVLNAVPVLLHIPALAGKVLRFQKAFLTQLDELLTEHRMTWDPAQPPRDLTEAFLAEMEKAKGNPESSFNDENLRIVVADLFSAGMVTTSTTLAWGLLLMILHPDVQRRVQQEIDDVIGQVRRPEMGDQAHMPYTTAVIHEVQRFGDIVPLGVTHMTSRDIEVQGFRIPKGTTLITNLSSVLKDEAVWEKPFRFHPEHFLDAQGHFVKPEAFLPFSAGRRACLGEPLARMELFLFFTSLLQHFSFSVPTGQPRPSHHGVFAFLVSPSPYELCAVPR

The term AUC denotes the area under the concentration-time curve, a measure of exposure. For orientation: Vdss means a proportionality between amount in the body and measured concentration, not a real space. Usually half-life stands for the time needed for the level to fall by half in the phase considered. A word on the clearance: it is a measure of how efficiently the substance is removed, as volume per time. A word on the fraction unbound: it is the share of the substance not bound to proteins or other matrix. In general, Ki refers to the equilibrium dissociation constant of an inhibitor or competing ligand from its target. What is called IC50 is the concentration that gives 50% inhibition. As usually defined, the bioavailability is the share of a dose that reaches the circulation, judged against a reference dose that is usually intravenous. What is called inhibition is the percentage by which the read-out fell short of the control. `Cc1cc(CN2CCC2)cc(F)c1-c1cc2c(-c3cnn(C)c3)n[nH]c2cn1`: the exposure (AUC) at 24 h in series [1] turned out to be 9.77 µM·h; in series [5], 1.1 µM·h. In addition, in series [2], the Vdss is 4 L/kg. The half-life in series [3] is 6 h. Besides, the clearance in [4] is 15.8 mL/min/kg; in [6] it was 102 mL/min/kg. In series [7], the free fraction (fraction unbound) is 0.43. The Papp A→B at 2 h, 50 µM in series [8] was 3.1 ×10⁻⁶ cm/s. Also, the inhibition constant (Ki) in series [9] was 0.0041 µM. For the same molecule, the IC50 in [10] is 0.146 µM; in series [13], 0.302 µM; in series [14] it was more than 15 µM; in series [15], more than 15 µM; in series [16], more than 15 µM; in series [17] it was more than 15 µM. The IC50 in [18], in [19] and in series [21] was more than 15 µM in each case. The CLint scaled at 1 µM in [11] was 8.33 mL/min/kg. This molecule also returned a bioavailability in [12] of 96%. Further, testing at 5 µM in series [20] gave an inhibition of 5%.
